# Experimental data reported in patent US20250270615A1, “METHOD FOR DETECTING THE MICROBIAL GROWTH POTENTIAL OF AN ANTISCALANT COMPOSITION IN NATURAL SEAWATER” (ACWA POWER Company, priority 2024, published 2025).
# System: autochthonous seawater bacteria
# Assay: Bacterial growth potential of antiscalants in natural seawater with an autochthonous bacterial population (flow cytometry)
# Assay type: cell-based
# Conditions: 50 mg L^−1 antiscalant, Red Sea water, 30° C. dark, 8 days, one-tail Wilcoxon signed-rank test
# Procedure: The natural seawater was serially filtered to remove microbial cells and to set a desired low initial cell concentration for the growth potential assay within approximately 10,000 to 20,000 bacterial cells mL^−1. This seawater was used in the method of the present disclosure.
# Natural seawater (1.0 L) was serially filtered through pre-cleaned 0.45 μm pore size and 0.2 μm pore size polyethersulfone filters (Satorius Stedium Minisart). The filters were replaced every 100 mL.
# 30 mL of the resulting filtered seawater with a bacterial cell concentration of 21,000±1200 cells mL^−1 was added to AOC-free 40 mL borosilicate glass vials with screw caps containing PTFE-lined silicone septa.
# Antiscalants from the 8 stock solutions (3 g L^−1) were added to 8 vials to obtain 8 mixtures comprising the antiscalant at a final concentration of 50 mg L^−1.
# Vials with no antiscalant addition were included as a control.
# The vials were incubated at 30° C. in the dark and bacterial growth was determined by measuring cell concentrations over time using flow cytometry. Each growth potential test was conducted in three independent biological replicates.
# Flow cytometry (FCM) was used to measure the bacterial cell concentration in the vials at an interval of 24 h.
# To this end, 5.0 μL SYBR Green I (Invitrogen, 100× diluted in 10 mM Tris buffer pH=8.1) were added to a final 0.5 mL vial samples in amber microfuge tubes followed by mixing and incubation for 10 min in the dark at 35° C.
# Stained cells were measured with a BD Accuri C6 instrument in fixed 50 μL volume mode with a sample flow rate of 35 μL min^−1. The blue 488 nm laser (50 mW) was used to collect the green fluorescence at FL1=533 30 nm, the red fluorescence FL3>670 nm, as well as intrinsic cell parameters were given by the side scattered (SSH) and forward scattered (FSH) light signals. Electronic gating was used to separate positive microbial stained signals from instrument, and water background noise as described by Prest et al. (2013).
# The instrument performance was verified using Spherotech 8-peak validation beads. […]
row,Structure (SMILES),bacterial growth compared to reference without antiscalant
1,"O=P(O)(O)CN(CP(=O)(O)O)CP(=O)(O)O [ATMP, amino trimethylene phosphonic acid]",promoted bacterial growth
2,"O=P(O)(O)CN(CCCCCCN(CP(=O)(O)O)CP(=O)(O)O)CP(=O)(O)O [HDTMP, hexamethylenediamine-tetra(methylenephosphonic acid)]",promoted bacterial growth
3,"CC(O)(P(=O)(O)O)P(=O)(O)O [HEDP, 1-hydroxyethylidene-(1,1-diphosphonic acid)]",did not promote bacterial growth
